From patent US8481564B2, “Inhibitors of c-fms kinase” (Janssen Pharmaceutica, N.V., priority 2006, dated 2013)

Legend:
[1] = system: mouse bone-marrow derived macrophages; test: CSF-1-driven mouse bone-marrow derived macrophages assay (BrDU incorporation); assay type: cell-based; details: BMDM; CSF-1 stimulated mouse bone-marrow derived macrophages, 30 hrs culture, BrDU incorporation ELISA; read-out: mCSF driven proliferation BMDM (Mouse)
Description: CSF-1-Driven Mouse Bone-Marrow Derived Macrophages Assay
Macrophages are derived by culturing mouse bone marrow in alpha-MEM supplemented with 10% FCS (fetal calf serum) and 50 ng/ml recombinant mouse CSF-1 in bacteriologic dishes. On the sixth day, macrophages are detached from dishes, washed, and resuspended to 0.1 million cells/ml in alpha-MEM containing 10% FCS. One hundred ul of cell suspension are distributed per well into 96 well culture plates. Wells are further supplemented with the addition of 50 ul media containing 15 ng/ml CSF-1, 3 uM Indomethacin, and 3× of a dilution series of test compounds. The cells are cultured for 30 hrs at 37° C. and 5% CO2. During the final six hours, cultures are supplemented with an additional 30 ul of media containing a 1:500 dilution of bromodeoxyuridine (BrDU). At the end of the culture period, the media is removed and replaced with […] of fixative solution for 30′@room temperature. The fixative is then dispelled from the plates and the plates allowed to air dry. Incorporation of BrDU into the fixed, dried cells is quantified using a specific ELISA (Cat X1327K) from Exalpha Corporation (Watertown Mass.). Background values are determined from wells without BrDU reagent. IC50 values are calculated based on signal from CSF-1 stimulated cells without compound present.

CSF-1R = CSF-1R (Homo sapiens (Human), UniProt P07333); test: Fluorescence polarization competition immunoassay (inhibition of CSF-1R phosphorylation of tyrosine on synthetic CSF-1R555-568 peptide); assay type: biochemical; details: CSF-1R fluorescence polarization assay; 0.7 nM CSF-1R, 1 mM ATP, 308 μM peptide; mean of at least three determinations
CSF-1R, sequence (P07333 20-972): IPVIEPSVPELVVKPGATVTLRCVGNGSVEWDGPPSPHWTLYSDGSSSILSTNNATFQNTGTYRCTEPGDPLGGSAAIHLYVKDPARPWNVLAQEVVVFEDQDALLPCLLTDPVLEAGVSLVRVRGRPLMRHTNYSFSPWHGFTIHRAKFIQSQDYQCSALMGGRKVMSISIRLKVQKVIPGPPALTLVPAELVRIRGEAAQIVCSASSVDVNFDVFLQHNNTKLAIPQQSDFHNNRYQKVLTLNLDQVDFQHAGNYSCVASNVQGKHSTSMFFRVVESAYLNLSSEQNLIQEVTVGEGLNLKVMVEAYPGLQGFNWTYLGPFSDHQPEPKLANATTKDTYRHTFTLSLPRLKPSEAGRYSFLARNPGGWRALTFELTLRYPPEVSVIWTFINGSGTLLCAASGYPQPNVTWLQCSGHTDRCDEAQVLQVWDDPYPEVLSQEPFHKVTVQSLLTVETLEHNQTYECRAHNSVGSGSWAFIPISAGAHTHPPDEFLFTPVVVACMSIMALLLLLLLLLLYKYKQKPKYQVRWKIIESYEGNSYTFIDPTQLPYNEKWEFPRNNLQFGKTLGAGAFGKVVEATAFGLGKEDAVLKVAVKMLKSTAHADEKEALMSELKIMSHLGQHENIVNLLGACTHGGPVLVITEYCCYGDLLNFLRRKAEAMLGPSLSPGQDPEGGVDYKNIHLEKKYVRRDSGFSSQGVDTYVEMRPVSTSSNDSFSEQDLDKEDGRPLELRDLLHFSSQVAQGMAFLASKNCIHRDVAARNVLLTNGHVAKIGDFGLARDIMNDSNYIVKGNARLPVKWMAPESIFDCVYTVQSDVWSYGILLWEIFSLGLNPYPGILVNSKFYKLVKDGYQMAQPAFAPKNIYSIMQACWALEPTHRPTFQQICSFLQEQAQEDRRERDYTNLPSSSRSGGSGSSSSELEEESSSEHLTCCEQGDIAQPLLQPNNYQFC
Description: Fluorescence Polarization Competition Immunoassay
The kinase reaction was initiated by adding 1 μL of 10 mM ATP in assay buffer. […] Positive and negative control wells were included on each plate, where 4% DMSO in assay buffer was substituted for the compound; in addition, positive control wells received 1.2 μL of 50 mM EDTA before the start of the reaction.
The plates were covered and incubated at room temperature for 80 min. Reactions were stopped by addition of 1.2 μL of 50 mM EDTA. […] The plates were covered, incubated for 30 min at room temperature, and the fluorescence polarization was read on an Analyst plate reader (Molecular Devices). […] Reported IC50 values are the mean of three of at least three determinations.

Question: How did the IC50 [1] turn out when `N#Cc1c[nH]c(C(=O)Nc2cc(CO)c(C3CNS(=O)(=O)NC3)cc2C2=CCCCC2)n1` [Example 6, 4-Cyano-1H-imidazole-2-carboxylic acid [2-cyclohex-1-enyl-4-(1,1-dioxo-1λ^6-[1,2,6]thiadiazinan-4-yl)-5-hydroxymethyl-phenyl]-amide] was run?
Answer: 0.06 µM

Question: And the IC50 (CSF-1R)?
Answer: 0.01 µM

Question: For `N#CN=C1NCC(c2ccc(NC(=O)c3nc(C#N)c[nH]3)c(C3=CCCCC3)c2)CN1` (stereo not drawn) [Example 12, 4-Cyano-1H-imidazole-2-carboxylic acid[4-(2-cyanoimino-hexahydro-pyrimidin-5-yl)-2-cyclohex-1-enyl-phenyl]-amide], which IC50 [1] is on record?
Answer: 0.04 µM

Question: What about the IC50 (CSF-1R) of the same compound?
Answer: 0.003 µM

Question: How did the IC50 [1] turn out when `CS(=O)(=O)N=C1NCC(c2ccc(NC(=O)c3nc(C#N)c[nH]3)c(C3=CCCCC3)c2)CN1` (stereo not drawn) [Example 13, 4-Cyano-1H-imidazole-2-carboxylic acid[2-cyclohex-1-enyl-4(2methanesulfonylimino-hexahydro-pyrimidin-5-yl)-phenyl]-amide] was run?
Answer: 0.1 µM

Question: What about the IC50 (CSF-1R) of the same compound?
Answer: 0.002 µM

Question: For `N#Cc1c[nH]c(C(=O)Nc2ccc(C3CNS(=O)(=O)NC3)cc2C2=CCCCC2)n1` [Example 5, 4-Cyano-1H-imidazole-2-carboxylic acid [2-cyclohex-1-enyl-4-(1,1-dioxo-1λ^6-[1,2,6]thiadiazinan-4-yl)-phenyl]-amide], which IC50 [1] is on record?
Answer: 0.06 µM

Question: Which IC50 [1] does the source give for `CN1CC(c2ccc(NC(=O)c3cc(C#N)c[nH]3)c(C3=CCCCCC3)c2)CN(C)C1=O` [Example 10, 4-Cyano-1H-pyrrole-2-carboxylic acid [2-cyclohept-1-enyl-4-(1,3-dimethyl-2-oxo-hexahydro-pyrimidin-5-yl)-phenyl]-amide] here?
Answer: 0.1 µM

Question: How did the IC50 [1] turn out when `CN1CC(c2ccc(NC(=O)c3nc(C#N)c[nH]3)c(C3=CCCCC3)c2)CN(C)S1(=O)=O` [Example 11, 4-Cyano-1H-imidazole-2-carboxylic acid [2-cyclohex-1-enyl-4-(2,6-dimethyl-1,1-dioxo-1λ^6-[1,2,6]thiadiazinan-4-yl)-phenyl]-amide] was run?
Answer: 0.002 µM

Question: For `CC1(C)CC=C(c2cc(C3CC(=O)NC(=O)C3)ccc2NC(=O)c2nc(C#N)c[nH]2)CC1` [Example 3, 4-Cyano-1H-imidazole-2-carboxylic acid [2-(4,4-dimethyl-cyclohex-1-enyl)-4-(2,6-dioxo-piperidin-4-yl)-phenyl]-amide], which IC50 [1] is on record?
Answer: 0.007 µM

Question: `CN1CC(c2ccc(NC(=O)c3nc(C#N)c[nH]3)c(C3=CCC(C)(C)CC3)c2)CN(C)C1=O` [Example 8, 4-Cyano-1H-imidazole-2-carboxylic acid [2-(4,4-dimethyl-cyclohex-1-enyl)-4-(1,3-dimethyl-2-oxo-hexahydro-pyrimidin-5-yl)-phenyl]-amide] was tested. Which IC50 [1] did it give?
Answer: 0.003 µM

Question: `N#Cc1c[nH]c(C(=O)Nc2ccc(C3CC(=O)NC(=O)C3)cc2C2=CCCCC2)n1` [Example 1, 4-Cyano-1H-imidazole-2-carboxylic acid [2-cyclohex-1-enyl-4-(2,6-dioxo-piperidin-4-yl)-phenyl]-amide] was tested. Which IC50 [1] did it give?
Answer: 0.01 µM

Question: `CN1C(=O)CC(c2ccc(NC(=O)c3nc(C#N)c[nH]3)c(C3=CCCCC3)c2)CC1=O` [Example 14, 4-Cyano-1H-imidazole-2-carboxylic acid[2-cyclohex-1-enyl-4-(1-methyl-2,6-dioxo-piperidin-4-yl)-phenyl]-amide] was tested. Which IC50 [1] did it give?
Answer: 0.004 µM

Question: With `N#Cc1c[nH]c(C(=O)Nc2ccc(C3COC(=O)OC3)cc2C2=CCCCC2)n1` [Example 15, 4-Cyano-1H-imidazole-2-carboxylic acid[2-cyclohex-1-enyl-4-(2-oxo-[1,3]dioxan-5-yl)-phenyl]-amide] as the compound, how does the IC50 (CSF-1R) read?
Answer: > 0.3 µM

Question: Which IC50 [1] does the source give for `CN1CC(c2ccc(NC(=O)c3nc(C#N)c[nH]3)c(C3=CCCCCC3)c2)CN(C)C1=O` [Example 9, 4-Cyano-1H-imidazole-2-carboxylic acid [2-cyclohept-1-enyl-4-(1,3-dimethyl-2-oxo-hexahydro-pyrimidin-5-yl)-phenyl]-amide] here?
Answer: 0.005 µM
